Here are results for 3 compounds from patent US5049552A, “Compositions containing hexadecylphosphocholine and use thereof” (Max-Planck-Gesellschaft fur Foerderung der Wissenschaften …, priority 1985, dated 1991).

Like-named read-outs stand apart in the source and are kept apart here.

For one data set, the system named is tumors. Nature of the data set: anti-tumor action and toxicity, general statement (homologous alkyl compounds). Particulars: for anti-tumor action / toxicity: general statement.
A short description of data set [1]: subacute toxicity during a treatment of 5 weeks (mortality, median survival time). The format is in vivo, rat. From the text:
(§1) Hexadecylphosphocholine is a known substance. […] Therefore, in spite of an anti-tumor action, the median survival time in comparison with the control was shortened by 72% in the case of octadecylphosphocholine-treated animals.

The test system of data set [2] is methylnitrosourea-induced mammary carcinoma. Nature of the data set: methylnitrosourea-induced mammary carcinoma of the rat, in vivo.
Description: as §1

For another data set, the system named is L1210. Nature of the data set: L1210 colony experiment in vitro. It counts as cell-based.
Data set [3] concerns 7,12-dimethylbenzanthracene-induced mammary carcinoma. Put plainly: 7,12-dimethylbenzanthracene-induced mammary carcinoma of the rat. The format is in vivo.
Data set [4] relates to chemically induced mammary carcinomas. Nature of the data set: chemically induced mammary carcinoma of the rat (7,12-dimethylbenzanthracene or methylnitrosourea), in vivo. The note with it: for minimal effective dose / effect on tumor growth / general dose range for the action / general dose range for the action, especially: rat; for minimal effective dose: read-out: lowest already effective dose. From the text:
For oral administration, hexadecylphosphocholine is used, for example, in the form of a potable solution. As carriers there are suitable, for example, milk, cocoa, fruit juice or drinking water. The preparation of such a potable solution takes place, for example, by dilution of a concentrated alcoholic solution of hexadecylphosphocholine with water or another of the previously mentioned agents. […] In the case of the tumor model used for these experiments, it is a question of a so-called hard model. This means that findings obtained with this model can also be transmitted to the human situation.

The conditions of data set [5]: Pharmazie 37, 1982, pages 706-707; cited from earlier work.
Where [6] appears, read: 5 weeks, daily dose 77 μmole/kg rat orally.

Regarding `CCCCCCCCCCCCCCCCCCOP(=O)([O-])OCC[N+](C)(C)C` [octadecylphosphocholine, reference compound], in the data set on tumors, the anti-tumor action entry was “anti-tumor effective” and the toxicity result is given as “far too toxic”. The “shortening of median survival time in comparison with the control” value in data set [1] (setting [6]) is 72%. Further, the mortality (as a rule, the percentage killed) at 840 h in data set [1] (in vivo, po, 77 umol/kg, 5 weeks, daily dose 77 μmole/kg rat orally, read-out: mortality (of all animals)) was determined as 80%.

On to `CCCCCCCCCCCCCCOP(=O)([O-])OCC[N+](C)(C)C` [tetradecylphosphocholine, reference compound], for which the anti-tumor action entry in data set [2] (in vivo, autochthonous methylnitrosourea-induced mammary carcinoma of the rat) is reported as “practically no anti-tumor action”; in the data set on L1210, “practically no anti-tumor action”.

On to `CCCCCCCCCCCCCCCCOP(=O)([O-])OCC[N+](C)(C)C` [hexadecylphosphocholine], for which the “action on 7,12-dimethylbenzanthracene-induced mammary carcinoma” value in data set [3] was “good action”. For the same compound, the minimal effective dose in data set [4] (iv, intravenously) turned out to be 5 mg/kg; in data set [4] (po, orally) it was 5 mg/kg. Further, the results for the “effect on tumor growth” value in data set [4] (10 mg./kg. body weight) and in data set [4] (doses higher than 10 mg./kg.) were “cessation of growth of the tumors” and “complete disappearance of the growths”, respectively. In addition, the “general dose range for the action” value in data set [4] (intravenously) and in data set [4] (orally) was 5 to 50 mg/kg each time. For the same compound, the “general dose range for the action, especially” value in data set [4] (intravenously) and in data set [4] (orally) was 15 to 32 mg/kg throughout. Also, the “remission of chemically induced mammary carcinomas” value in data set [4] (rats, daily doses of 20, 40 and 60 mg./kg., oral) was “complete remission”. The “compatibility versus 1-octadecyl-2-methyl-rac-glycero-3-phosphocholine” value in data set [4] (rats, oral) is reported as “better compatible”. Besides, in data set [4] (rats, oral), the “effectiveness versus 1-octadecyl-2-methyl-rac-glycero-3-phosphocholine” value is “better effective”. For the same compound, in data set [2] (rat), the “action on methylnitrosourea-induced mammary carcinoma” value was “good action”. The anti-tumor action entry in the data set with tumors is on record as “practically useful good anti-tumor action”; in the data set on tumors (listed as Hexadecylphosphocholine) it was “excellent anti-tumor action”. Further, in the data set on tumors, the toxicity result was “sufficient anti-tumor action in non-toxic doses”. The “synergistic increase of antitumor action with alkylglycerols / glycerol ethers of formula I” value in the data set with tumors (hexadecylphosphocholine together with alkylglycerol) is listed as “synergistic action increase of the antitumor action”. Besides, the “lysing and fusogenic action” value in data set [5] is “a lysing and fusogenic action”. Further, in data set [1] (setting [6]), the “mortality in comparison with octadecylphosphocholine-treated animals” value is listed as “lower by a half”. In addition, in data set [1] (5 weeks, highly significant), the “increase of the median survival time in comparison with the controls” value came to 26%. Besides, the chronic toxicity result in data set [1] (rat, oral) is “absence of a chronic toxicity”.
